Converted amounts (≈) assume the structure as drawn.
Tested on: Mannheimia haemolytica
Assay: minimum inhibitory concentration (MIC)
Procedure: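 Broth microdilution MIC (Sensititre BOPO7F bovine plate, CLSI methods) of 19 antimicrobials against field isolates of P. multocida, M. haemolytica, H. somni (deep nasopharyngeal swabs) and E. coli, Enterococcus spp. (rectal swabs) from weaned dairy heifers. Incubation 16-24 h at 35 C. MIC is the lowest concentration preventing visible growth. Values with <= or > lie at the tested range limits. Trimethoprim-sulfamethoxazole is given as the trimethoprim component of a 1:19 mixture.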

CC[C@H]1OC(=O)C[C@@H](O)[C@H](C)[C@@H](O[C@@H]2O[C@H](C)[C@@H](O)[C@H](N(C)C)[C@H]2O)[C@@H](CCN2C[C@H](C)C[C@H](C)C2)C[C@@H](C)C(=O)/C=C/C(C)=C/[C@@H]1CO[C@@H]1O[C@H](C)[C@@H](O)[C@@H](OC)[C@H]1OC [Tilmicosin]
Conditions	minimum inhibitory concentration [µg/mL]
isolate (source animal id): 8	4 (≈ 4.6 µM)
isolate (source animal id): 13	4 (≈ 4.6 µM)
isolate (source animal id): 18	4 (≈ 4.6 µM)
isolate (source animal id): 21	4 (≈ 4.6 µM)
isolate (source animal id): 25	> 16
isolate (source animal id): 27	> 16
isolate (source animal id): 28	16 (≈ 18.4 µM)
isolate (source animal id): 30	8 (≈ 9.2 µM)
isolate (source animal id): 31	> 16
isolate (source animal id): 32	4 (≈ 4.6 µM)
isolate (source animal id): 34	8 (≈ 9.2 µM)
isolate (source animal id): 36	> 16
isolate (source animal id): 37	> 16
isolate (source animal id): 40	4 (≈ 4.6 µM)
isolate (source animal id): 41	4 (≈ 4.6 µM)
isolate (source animal id): 43	4 (≈ 4.6 µM)
isolate (source animal id): 46	> 16
isolate (source animal id): 49	> 16
isolate (source animal id): 50	> 16
isolate (source animal id): 51	4 (≈ 4.6 µM)
isolate (source animal id): 52	4 (≈ 4.6 µM)
isolate (source animal id): 53	4 (≈ 4.6 µM)
isolate (source animal id): 55	4 (≈ 4.6 µM)
isolate (source animal id): 56	4 (≈ 4.6 µM)
isolate (source animal id): 57	> 16
isolate (source animal id): 100	> 16
isolate (source animal id): 103	> 16
isolate (source animal id): 107	16 (≈ 18.4 µM)
isolate (source animal id): 108	16 (≈ 18.4 µM)
isolate (source animal id): 112	> 16
isolate (source animal id): 113	> 16
isolate (source animal id): 121	> 16
isolate (source animal id): 122	> 16
isolate (source animal id): 123	> 16
isolate (source animal id): 126	> 16
isolate (source animal id): 133	> 16
isolate (source animal id): 135	> 16
isolate (source animal id): 138	> 16
isolate (source animal id): 141	> 16
isolate (source animal id): 142	> 16
isolate (source animal id): 145	16 (≈ 18.4 µM)
isolate (source animal id): 149	8 (≈ 9.2 µM)
isolate (source animal id): 151	8 (≈ 9.2 µM)
isolate (source animal id): 152	> 16
isolate (source animal id): 154	8 (≈ 9.2 µM)
isolate (source animal id): 159	> 16
isolate (source animal id): 162	> 16
isolate (source animal id): 170	16 (≈ 18.4 µM)
isolate (source animal id): 171	8 (≈ 9.2 µM)
isolate (source animal id): 172	16 (≈ 18.4 µM)
isolate (source animal id): 173	16 (≈ 18.4 µM)
isolate (source animal id): 179	8 (≈ 9.2 µM)
isolate (source animal id): 180	4 (≈ 4.6 µM)
isolate (source animal id): 183	4 (≈ 4.6 µM)
isolate (source animal id): 186	4 (≈ 4.6 µM)
isolate (source animal id): 187	8 (≈ 9.2 µM)
isolate (source animal id): 188	4 (≈ 4.6 µM)
isolate (source animal id): 190	4 (≈ 4.6 µM)
isolate (source animal id): 191	16 (≈ 18.4 µM)
isolate (source animal id): 192	8 (≈ 9.2 µM)
isolate (source animal id): 201	16 (≈ 18.4 µM)
isolate (source animal id): 202	16 (≈ 18.4 µM)
isolate (source animal id): 209	16 (≈ 18.4 µM)
isolate (source animal id): 211	16 (≈ 18.4 µM)
isolate (source animal id): 220	16 (≈ 18.4 µM)
isolate (source animal id): 221	8 (≈ 9.2 µM)
isolate (source animal id): 223	8 (≈ 9.2 µM)
isolate (source animal id): 233	8 (≈ 9.2 µM)
isolate (source animal id): 237	> 16
isolate (source animal id): 241	> 16
isolate (source animal id): 252	> 16
isolate (source animal id): 253	> 16
isolate (source animal id): 259	> 16
isolate (source animal id): 260	> 16
isolate (source animal id): 262	> 16
isolate (source animal id): 282	> 16
isolate (source animal id): 287	> 16
